Reference: US6656932B2, “Benzo thiadiazine matrix metalloproteinase inhibitors” (Warner-Lambert Company, priority 2001, dated 2003)

Assays:
Type in all cases: biochemical
[1] = biological target: MMP-3CD (catalytic domain of stromelysin-1) (Homo sapiens, UniProt P08254); assay: Thiopeptolide hydrolysis assay, MMP-3CD; details: Table 2; thiopeptolide substrate, MES buffer pH 6.0; read-out: IC50 (μM) Versus Certain MMPs: MMP03 (CD)
Description: (§1) The invention compounds of Formula I have been evaluated in standard assays for their ability to inhibit the catalytic activity of various MMP enzymes.
(§2) Thiopeptolide substrates show virtually no decomposition or hydrolysis at or below neutral pH in the absence of a matrix metalloproteinase enzyme.
(§3) Several representative compounds have been evaluated for their ability to inhibit various matrix metalloproteinase enzymes.
It should be appreciated that the assay buffer used with MMP-3CD was 50 mM of N-morpholinoethane sulfonate (“MES”) at pH 6.0 rather than the HEPES buffer at pH 7.0 described above.

[2] = biological target: MMP-9FL (full-length Gelatinase B) (Homo sapiens, UniProt P14780); assay: Thiopeptolide hydrolysis assay, MMP-9FL; details: Table 2; thiopeptolide substrate, HEPES pH 7.0; read-out: IC50 (μM) Versus Certain MMPs: MMP09 (FL)
Description: as §1, §2, §3

[3] = biological target: T1, MMP-1FL (full-length interstitial collagenase) (Homo sapiens, UniProt P03956); assay: Thiopeptolide hydrolysis assay, MMP-1FL; details: Table 2; thiopeptolide substrate, HEPES pH 7.0; read-out: IC50 (μM) Versus Certain MMPs: MMP01 (FL)
T1 sequence (P03956 100-469): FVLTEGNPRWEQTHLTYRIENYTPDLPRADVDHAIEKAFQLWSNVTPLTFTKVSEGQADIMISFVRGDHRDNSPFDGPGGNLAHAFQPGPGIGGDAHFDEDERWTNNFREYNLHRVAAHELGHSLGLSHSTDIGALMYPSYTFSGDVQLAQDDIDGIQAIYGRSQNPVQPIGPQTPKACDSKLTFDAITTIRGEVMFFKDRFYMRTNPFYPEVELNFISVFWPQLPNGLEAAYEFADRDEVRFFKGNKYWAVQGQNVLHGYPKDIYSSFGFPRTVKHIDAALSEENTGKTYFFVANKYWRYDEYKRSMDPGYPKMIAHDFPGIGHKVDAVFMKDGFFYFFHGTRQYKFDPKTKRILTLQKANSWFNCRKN
Description: as §1, §2, §3

[4] = biological target: MMP-13CD (catalytic domain of collagenase 3) (Homo sapiens, UniProt P45452); assay: Thiopeptolide hydrolysis assay, MMP-13CD; details: Table 2; thiopeptolide substrate, HEPES pH 7.0; read-out: IC50 (μM) Versus Certain MMPs: MMP13 (CD)
Description: as §1, §2, §3

[5] = biological target: MMP-14CD (catalytic domain of MMP-14) (Homo sapiens, UniProt P50281); assay: Thiopeptolide hydrolysis assay, MMP-14CD; details: Table 2; thiopeptolide substrate, HEPES pH 7.0; read-out: IC50 (μM) Versus Certain MMPs: MMP14 (CD)
Description: as §1, §2, §3

[6] = biological target: T2, MMP-7FL (full-length matrilysin) (Homo sapiens, UniProt P09237); assay: Thiopeptolide hydrolysis assay, MMP-7FL; details: Table 2; thiopeptolide substrate, HEPES pH 7.0; read-out: IC50 (μM) Versus Certain MMPs: MMP07 (FL)
T2 sequence (P09237 95-267): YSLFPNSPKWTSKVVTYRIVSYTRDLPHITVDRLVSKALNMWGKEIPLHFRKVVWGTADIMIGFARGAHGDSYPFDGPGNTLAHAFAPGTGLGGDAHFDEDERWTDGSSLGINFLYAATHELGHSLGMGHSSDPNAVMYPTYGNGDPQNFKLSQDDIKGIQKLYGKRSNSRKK
Description: as §1, §2, §3

Sequence of MMP-3CD (catalytic domain of stromelysin-1) (P08254 100-272 limits assumed): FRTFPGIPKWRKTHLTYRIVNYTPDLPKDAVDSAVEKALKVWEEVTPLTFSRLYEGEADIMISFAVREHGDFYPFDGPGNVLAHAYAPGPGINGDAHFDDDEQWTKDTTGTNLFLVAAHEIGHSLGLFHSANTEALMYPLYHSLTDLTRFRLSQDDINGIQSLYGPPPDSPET
Sequence of MMP-9FL (full-length Gelatinase B) (P14780 94-707, species assumed): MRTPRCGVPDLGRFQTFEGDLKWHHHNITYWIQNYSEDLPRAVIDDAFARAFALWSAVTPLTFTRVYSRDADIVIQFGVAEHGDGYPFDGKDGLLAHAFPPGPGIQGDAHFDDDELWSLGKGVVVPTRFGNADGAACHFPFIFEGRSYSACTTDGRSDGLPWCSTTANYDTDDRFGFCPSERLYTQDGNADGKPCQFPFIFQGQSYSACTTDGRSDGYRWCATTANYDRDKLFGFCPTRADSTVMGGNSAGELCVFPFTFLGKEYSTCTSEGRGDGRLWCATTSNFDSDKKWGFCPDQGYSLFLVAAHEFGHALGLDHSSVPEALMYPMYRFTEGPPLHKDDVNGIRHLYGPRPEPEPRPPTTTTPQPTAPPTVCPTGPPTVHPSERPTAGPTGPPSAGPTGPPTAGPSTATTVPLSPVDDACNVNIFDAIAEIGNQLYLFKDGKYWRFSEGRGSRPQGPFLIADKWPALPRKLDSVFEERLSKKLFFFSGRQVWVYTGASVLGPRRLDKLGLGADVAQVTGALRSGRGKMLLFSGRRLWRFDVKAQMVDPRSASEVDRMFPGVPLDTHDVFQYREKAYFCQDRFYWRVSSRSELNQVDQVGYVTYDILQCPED

Compound	IC50 [1] [µM]	IC50 [2] [µM]	IC50 [3] [µM]	IC50 [4] [µM]	IC50 [5] [µM]	IC50 [6] [µM]
COc1ccc(CNC(=O)c2ccc3c(c2)S(=O)(=O)N(Cc2ccc(C(N)=O)cc2)C(=O)N3C)cc1 [Example 14, 2-(4-Carbamoyl-benzyl)-4-methyl-1,1,3-trioxo-1,2,3,4-tetrahydro-1l^6-benzo[1,2,4]thiadiazine-7-carboxylic acid 4-methoxy-benzylamide]	> 100	> 30	> 30	0.155	> 30	> 30
CN1C(=O)N(Cc2ccccc2)S(=O)(=O)c2cc(C(=O)NCc3ccc(F)cc3)ccc21 [Example 16, 2-Benzyl-4-methyl-1,1,3-trioxo-1,2,3,4-tetrahydro-1l^6-benzo[1,2,4]thiadiazine-7-carboxylic acid 4-fluoro-benzylamide]	> 100	> 30	> 100	0.345	> 30	> 30
CNS(=O)(=O)c1ccc(CN2C(=O)N(C)c3ccc(C(=O)NCc4ccc(OC)cc4)cc3S2(=O)=O)cc1 [Example 18, 4-Methyl-2-(4-methylsulfamoyl-benzyl)-1,1,3-trioxo-1,2,3,4-tetrahydro-1l^6-benzo[1,2,4]thiadiazine-7-carboxylic acid 4-methoxy-benzylamide]	10	> 30	> 30	0.31	> 30	> 30
COc1ccc(CNC(=O)c2ccc3c(c2)S(=O)(=O)N(Cc2ccc(S(=O)(=O)N4CCOCC4)cc2)C(=O)N3C)cc1 [Example 19, 4-Methyl-2-[4-(morpholine-4-sulfonyl)-benzyl]-1,1,3-trioxo-1,2,3,4-tetrahydro-1l^6-benzo[1,2,4]thiadiazine-7-carboxylic acid 4-methoxy-benzylamide]	11	> 30	> 30	0.23	> 30	> 30
COC(=O)c1ccc(CN2C(=O)N(C)c3ccc(C(=O)NCc4ccc(F)cc4)cc3S2(=O)=O)cc1 [Example 20, 4-[7-(4-Fluoro-benzylcarbamoyl)-4-methyl-1,1,3-trioxo-3,4-dihydro-1H-1l^6-benzo[1,2,4]thiadiazin-2-ylmethyl]-benzoic Acid Methyl Ester]	> 30	10	> 30	0.385	> 30	> 30
COc1cc(CNC(=O)c2ccc3c(c2)S(=O)(=O)N(Cc2ccccc2)C(=O)N3C)ccn1 [Example 21, 2-Benzyl-4-methyl-1,1,3-trioxo-1,2,3,4-tetrahydro-1l^6-benzo[1,2,4]thiadiazine-7-carboxylic acid (2-methoxy-pyridin-4-ylmethyl)-amide]	> 30	> 30	> 30	0.155	> 100	> 30
COc1ccc(CNC(=O)c2ccc3c(c2)S(=O)(=O)N(Cc2ccc4ccccc4c2)C(=O)N3C)cc1 [Example 22, 4-Methyl-2-naphthalen-2-ylmethyl-1,1,3-trioxo-1,2,3,4-tetrahydro-1l^6-benzo[1,2,4]thiadiazine-7-carboxylic acid 4-methoxy-benzylamide]	> 30	> 30	> 30	0.62	> 30	> 30
CN1C(=O)N(Cc2ccccc2)S(=O)(=O)c2cc(C(=O)NCc3ccc4nsnc4c3)ccc21 [Example 24, 2-Benzyl-4-methyl-1,1,3-trioxo-1,2,3,4-tetrahydro-1l^6-benzo[1,2,4]thiadiazine-7-carboxylic acid (2,1,3-benzothiadiazol-5-ylmethyl)-amide]	13	> 30	> 30	0.125	> 30	> 30
CN1C(=O)N(Cc2ccc(C(=O)O)cc2)S(=O)(=O)c2cc(C(=O)NCc3ccc(F)cc3)ccc21 [Example 25, 4-[7-(4-Fluoro-benzylcarbamoyl)-4-methyl-1,1,3-trioxo-3,4-dihydro-1H-1l^6-benzo[1,2,4]thiadiazin-2-ylmethyl]-benzoic Acid]	> 30	> 100	> 100	0.019	> 100	> 100
COc1ccc(CNC(=O)c2ccc3c(c2)S(=O)(=O)N(Cc2ccc(C(=O)N4CCCCC4)cc2)C(=O)N3C)cc1 [Example 27, 4-Methyl-1,1,3-trioxo-2-[4-(piperidine-1-carbonyl)-benzyl]-1,2,3,4-tetrahydro-1l^6-benzo[1,2,4]thiadiazine-7-carboxylic acid 4-methoxy-benzylamide]	10	> 30	> 30	0.29	> 30	> 30

More lines, now with the values ahead:

IC50 [1] [µM]	IC50 [2] [µM]	IC50 [3] [µM]	IC50 [4] [µM]	IC50 [5] [µM]	IC50 [6] [µM]	Compound
> 30	> 100	> 100	0.25	> 100	> 100	COc1ccc(CNC(=O)c2ccc3c(c2)S(=O)(=O)N(Cc2ccc(C(=O)NC(C(=O)O)C(C)C)cc2)C(=O)N3C)cc1 (stereo not drawn) [Example 28, 2-{4-[7-(4-Methoxy-benzylcarbamoyl)-4-methyl-1,1,3-trioxo-3,4-dihydro-1l^6-benzo[1,2,4]thiadiazin-2-ylmethyl]-benzoylamino}-3-methyl-butyric Acid]
9.4	> 30	> 30	0.13	> 30	> 30	COc1ccc(CNC(=O)c2ccc3c(c2)S(=O)(=O)N(Cc2ccc(C#N)cc2)C(=O)N3C)cc1 [Example 29, 2-(4-Cyano-benzyl)-4-methyl-1,1,3-trioxo-1,2,3,4-tetrahydro-1l^6-benzo[1,2,4]thiadiazine-7-carboxylic acid 4-methoxy-benzylamide]
> 30	> 100	> 100	0.0355	> 100	82	COc1ccc(CNC(=O)c2ccc3c(c2)S(=O)(=O)N(Cc2ccc(CC(=O)O)cc2)C(=O)N3C)cc1 [Example 30, {4-[7-(4-Methoxy-benzylcarbamoyl)-4-methyl-1,1,3-trioxo-3,4-dihydro-1H-1l^6-benzo[1,2,4]thiadiazin-2-ylmethyl]-phenyl}-acetic Acid]
> 30	> 100	> 100	0.00485	> 100	> 30	COc1cccc(CNC(=O)c2ccc3c(c2)S(=O)(=O)N(Cc2ccc(C(=O)O)cc2)C(=O)N3C)c1 [Example 31, 4-[7-(3-Methoxy-benzylcarbamoyl)-4-methyl-1,1,3-trioxo-3,4-dihydro-1H-1l^6-benzo[1,2,4]thiadiazin-2-ylmethyl]-benzoic Acid]
15	> 100	> 100	0.0062	> 100	> 30	COc1ccc(CNC(=O)c2ccc3c(c2)S(=O)(=O)N(Cc2ccc(-c4nn[nH]n4)cc2)C(=O)N3C)cc1 [Example 32, 4-Methyl-1,1,3-trioxo-2-[4-(2H-tetrazol-5-yl)-benzyl]-1,2,3,4-tetrahydro-1l^6-benzo[1,2,4]thiadiazine-7-carboxylic acid 4-methoxy-benzylamide]
> 100	> 30	> 30	0.0625	> 30	> 30	COc1cccc(CNC(=O)c2ccc3c(c2)S(=O)(=O)N(Cc2ccccc2)C(=O)N3C)c1 [Example 34, 2-Benzyl-4-methyl-1,1,3-trioxo-1,2,3,4-tetrahydro-1l^6-benzo[1,2,4]thiadiazine-7-carboxylic acid 3-methoxy-benzylamide]
